Where “and” joins values, the source holds several entries; their conditions need not be identical. Equal entries are not always repeated.
What was measured:
Assay type in all cases: in vivo, Sprague-Dawley rats
[1] = test system: SNL operated SD rats; assay: Tactile allodynia test, electronic von Frey (evF), paw withdrawal threshold in spinal nerve ligation (SNL) rats
Method: Spinal Nerve Ligation (SNL) Surgery. The animals were enrolled to SNL surgery in daily cohorts of n=6. The rats first received an intraperitoneal dose of 0.03 mg/kg buprenorphine (Temgesic), minimum of 30 minutes prior to the surgery, to alleviate the operative and postoperative pain unrelated to neuropathy. Prior to spinal nerve ligation (SNL) procedure, the rats were anesthetized with isoflurane in 70% N2O and 30% O2; with a flow rate of 300 ml/min. Anesthesia was inducted in a chamber with 5% isoflurane for 2-3 min, and maintained through a snout mask with 1-2% isoflurane thereafter. A homeothermic blanket system was used for the rectal temperature to be monitored and maintained at 37.0° C.±1.5° C. during the operation.
A dorsal incision extending from L3 to S2 was performed to the medial dorsal area of the rat using aseptic technique. The L6/S1 posterior interarticular process was exposed using a combination of blunt and sharp dissection. The L6 transverse process in the spinal column was visualized and partially removed without manipulating the nerves, followed by exposing the L4 and L5 spinal nerves distal to their emergence from the intervertebral foramina.
The L5 nerve was ligated tightly with 6-0 silk suture. The L6 nerve was then located caudal and medial to the sacroiliac junction and tightly ligated with 6-0 silk suture, similarly to L5. Both ligatures were performed as double knots.
Tactile Allodynia Test (evF) and Pre-Handling and Baseline evF. In this study, mechanical sensitivity to touch stimuli was defined at four timepoints by using electronic von Frey (evF) device along with the attached analysis software (Somedic®, Sweden).
To perform the evF test, the rats were placed in individual von Frey test chambers standing on an elevated steel mesh. The rats were then allowed to adapt in the chambers, and the test per se was emerged after they have settled down followed by investigating the chamber and grooming (approximately 15 min). Test […] an animals were grooming, urinating, defecating or sleeping. Further description of test procedure is provided hereinbelow.
Conducting evF Test. Mechanical allodynia were assessed by evF test prior to SNL surgery (baseline), to define the individual sensitivity levels of the study animals. Next, the evF was performed on D 7 post-SNL, to assess the hypersensitivity evoked by the SNL surgery, and to provide pre-dosing sensitivity values for comparing. On D 8, the animals were subjected to the test at 2 h post-dosing (PD), at 4 h PD and at 8 h PD. Subsequently, the test was performed at 24 h PD, i.e. on D 9. On D 9, Group 2 received Pregabalin (i.p) at 2 h prior to testing.
The evF apparatus was used according to the manufacturer's instructions. Briefly, upon each measurement, the force is applied to mid-plantar surface of the hind paw in a linearly increasing rate.
The used evF probe diameter was 1 mm, and the chosen ascent rate of the force 10 g/s. The linearity of force application was monitored in real time. The applied force (in grams) causing paw withdrawal was recorded by the apparatus as the result for the trial.
Altogether, 5 repeated measurements were applied to each hind paw at each time-point leaving a minimum of 3-min interval between the repeats. Medians of the 5 measurement repeats were determined from each paw at any given time point. Both ipsi- and contralateral paws were also tested on each test day.

[2] = test system: SNL operated SD rats; assay: Fine motor kinematic gait analysis (MotoRater) in SNL rats; details: within group, D7 to 24 h PD
Method: Fine Motor Kinematic Gait Analysis. The rats were subjected to gait analysis at the baseline and on study days 8, 9, 11, 14 and 17, at a minimum of 30 min after the evF test. The assay were carried out by MotoRater (TSE Systems, Homburg, Germany), with the walking mode. Prior to commencing the test, the essential body points (e.g. joints, limbs, nose, tail) were marked for tracking. The information of the gait performance was captured using a high speed camera (300 frames/second) from below and both sides. Next, the captured videos were converted to SimiMotion™ software. The raw data were obtained by tracking the marked points of the body from the videos recorded from all 3 dimensions. […]
Different gait patterns and movements were analyzed using a custom-made automated analysis system. […]
All Motorater data were analyzed for the distinct parameters, as well as for all combined parameters, using principal component analysis (PCA). […]
Comprehensive kinematic analysis was performed by high sensitivity MotoRater that allows detection of any subtle to severe gait changes in SNL model. […] The fine motor capabilities and the gait of the animals were evaluated at the baseline and four times after the SNL surgery, 2 h, 5 h, 9 h and 24 hours post-dosing using the kinematic movement analysis of altogether 97 separate parameters that were recorded.

[3] = test system: SNL operated SD rats; assay: Data mining (contrastive PCA) of multivariate kinematic gait data: SNL model score and sedation score; details: 50 mg/kg
Method: In this Example, data mining was performed to extend the multivariate kinematic data analysis and capture (a) Parameters indicative of analgesia vs. sedation phenotypes (analgesic or sedation ‘fingerprint’) (b) Quantitative measurement of parameters attributed to the temporal aspects of motion to evaluate temporal aspects of motion, such as positions, angles, velocities, and accelerations of body segments and joints during motion. Briefly, Contrastive Principal Component Analysis (cPCA) was utilized to identify different combinations of original variables which were linked to model effect, learning effect, and sedative effects. An orthogonalization procedure was used to make the obtained effects independent. cPC scores corresponding to identified cPCs were computed. In order to evaluate the analgesic and sedative effects of CBD:CBC:THC 5:5:5 mg/kg group, separate comparisons were performed with vehicle and pregabalin as controls, CBD+THC 10:10 mg/kg as positive control for sedation and CBC 10 mg/kg as negative control for sedation. The results of these comparisons were obtained by using all the previously identified components: model effect, learning effect and model orthogonal to learning, sedation orthogonal to model, and finally, the sedation orthogonal to both model and learning. […]

**Q.** `CC(C)C[C@H](CN)CC(=O)O` [Pregabalin] was tested. Which “Mean Diff, evF AUC” value ([1]; 5 mg/kg subset, labelled group vs. CBD + THC + CBC 5:5:1 mg/kg) did it give?
**A.** 13.8 and 14

**Q.** What about the “Mean Diff, evF AUC” value ([1]; 5 mg/kg subset, labelled group vs. Vehicle) of the same compound?
**A.** 29.8 and 30

**Q.** What about the “Mean (Mean 1/Mean 2), electronic von Frey Area Under the Curve (AUC)” value ([1]; Table 2B, 5 mg/kg subset, AUC of % of baseline PWT, pre-dosing to 24 h post-dosing, dose as in label, cannabinoids p.o. D8, Pregabalin 50 mg/kg i.p.) of the same compound?
**A.** 271

**Q.** What about the “Mean (Mean 1/Mean 2), electronic von Frey AUC” value ([1]; Table 3, 10 mg/kg subset, AUC of % of baseline PWT, pre-dosing to 24 h post-dosing, dose as in label, cannabinoids p.o. D8, Pregabalin 50 mg/kg i.p.) of the same compound?
**A.** 270.8

**Q.** What about the “Mean Diff, evF AUC” value ([1]; Table 3, labelled group vs. CBD + THC 10 mg/kg) of the same compound?
**A.** −63.2

**Q.** What about the “Mean Diff, evF AUC” value ([1]; Table 3, labelled group vs. CBD + THC 10 mg/kg + CBC 2 mg/kg) of the same compound?
**A.** −49.2

**Q.** And the “Mean Diff, evF AUC” value ([1]; Table 3, labelled group vs. Vehicle)?
**A.** 29.8

**Q.** What about the “Mean Diff, evF AUC” value ([1]; vs. Vehicle, separate 'Tukey's multiple comparison test' block at foot of Tables 2A/2B) of the same compound?
**A.** 29.8 and 30

**Q.** What about the “overall gait score pattern over time, in words” value [2] of the same compound?
**A.** increasing score until 9 h PD timepoint

**Q.** What about the “analgesic or sedative effect in the kinematic data” value [3] of the same compound?
**A.** no analgesic or sedative effect

Reference: patent US20210212984A1, “FORMULATION FOR PAIN MANAGEMENT” (Zyus Life Sciences Inc., priority 2019, published 2021)
